In PMC10977428 (Journal of Parkinson's Disease, 2024):
Read-outs that look alike come from different tables or passages of the source.

Key:
[1] = system: c-Abl activation; conditions: once-daily oral administration; cited from earlier work
[2] = 7-day multiple ascending dose; type: in vivo, human; conditions: for accumulation of exposures at steady-state: once daily 7 days; for AUC0 - ∞/D / Cmax/D: HV N = 6, mean (SD)
[3] = Single ascending dose; type: in vivo, human; conditions: for dose linearity of single dose PK: Cmax and AUC0 - inf; for AUC0 - ∞/D / Cmax/D / tlag: fed, older healthy adults N = 6, mean (SD)
[4] = system: rodent and non-human primates; conditions: daily dosing between 13 and 39 weeks duration; cited from earlier work
[5] = 7-day MAD plasma pharmacokinetics, participants with PD; type: in vivo; conditions: human, oral
[6] = system: participants with mild-to-moderate PD; assay: Functional assessments of motor and non-motor features of PD; type: in vivo, human; conditions: baseline to Day 7
[7] = type: in vivo, human; conditions: for concentration at 6 days: human, cerebrospinal fluid, oral
[8] = system: older healthy adults or participants with PD; assay: Safety and tolerability; type: in vivo, human
[9] = system: models of inherited or sporadic Parkinson’s-like disease; conditions: once daily oral administration; cited from earlier work
[10] = system: PD features; conditions: double blind clinical studies; cited from earlier work
[11] = DAY 1 of 7-day dosing, 12.5 mg once daily, plasma
[12] = DAY 1 of 7-day dosing, 25.0 mg once daily, plasma
[13] = DAY 1 of 7-day dosing, 200 mg once daily, plasma
[14] = DAY 7 of 7-day dosing, 25.0 mg once daily, plasma
[15] = DAY 7 of 7-day dosing, 200.0 mg once daily, plasma
[16] = SAD 12.5 mg single oral dose, plasma
[17] = SAD 25.0 mg single oral dose, plasma
[18] = SAD 37.5 mg single oral dose, plasma
[19] = SAD 75.0 mg single oral dose, plasma
[20] = SAD 100 mg single oral dose, plasma
[21] = SAD 125 mg single oral dose, plasma
[22] = SAD 175 mg single oral dose, plasma
[23] = SAD 250 mg single oral dose, plasma
[24] = SAD 325 mg single oral dose, plasma

In the case of `Cc1ccc(NC(=O)c2ccc(CN3CCN(C)CC3)cc2)cc1Nc1nccc(-c2cncc(-c3oncc3C)c2)n1` [Risvodetinib], the “effect in the MPTP acute toxicity model” value [1] is listed as “blocked disease initiation and progression”, the “accumulation of exposures at steady-state” value ([2]; 100 mg or 200 mg, Day 7 comparable to Day 1) is listed as “little or no accumulation” and the “AUC0 - ∞/D” value [2, 11] is listed as 706 (424) h*ng/mL/mg. For the same compound, the Cmax/D [2, 11] was 43.0 (23.1) ng/mL/mg, the “AUC0 - ∞/D” value [2, 12] was 780 (305) h*ng/mL/mg and the Cmax/D [2, 12] was 41.5 (22.3) ng/mL/mg. For the same compound, the “AUC0 - ∞/D” value [2, 13] was 759 (263) h*ng/mL/mg, the Cmax/D [2, 13] was 32.5 (6.4) ng/mL/mg and the “AUC0 - ∞/D” value [2, 14] was 1020 (370) h*ng/mL/mg. The Cmax/D [2, 14] was 70.9 (32.3) ng/mL/mg, the “AUC0 - ∞/D” value [2, 15] was 486 (116) h*ng/mL/mg and the Cmax/D [2, 15] was 29.8 (5.6) ng/mL/mg. The time to steady-state ([2]; doses > 50 mg once daily (higher doses)) was “within one day”, the “accumulation of exposures at steady-state” value ([2]; doses less than or equal to 50 mg) was “approximately two-fold” and the time to steady-state ([2]; doses ≤50 mg once daily) was no more than 5 days. It also gave an AUC(0-inf) ([2]; human, plasma, oral, 12.5 mg) of 8830 ng·h/mL, an AUC(0-inf) ([2]; human, plasma, oral, 25 mg) of 19500 ng·h/mL and an AUC(0-inf) ([2]; human, plasma, oral, 200 mg) of 152000 ng·h/mL. For the same compound, the half-life ([2]; human, plasma, oral, half-life, overall statement in discussion) was roughly 1440 min, the “dose linearity of single dose PK” value [3] was “approximately linear between 12.5 mg and 175 mg” and the “dose linearity of single dose PK” value ([3]; listed as risvodetinib (IkT-148009)) was “approximately linear between 12.5 mg and 200 mg”. For the same compound, the “AUC0 - ∞/D” value [3, 16] was 758 (345) h*ng/mL/mg, the Cmax/D [3, 16] was 35.8 (26.6) ng/mL/mg and the tlag [3, 16] was 1.09 (1.48) h. The “AUC0 - ∞/D” value [3, 17] was 936 (314) h*ng/mL/mg, the Cmax/D [3, 17] was 37.8 (13.9) ng/mL/mg and the tlag [3, 17] was 0.614 (0.367) h. The “AUC0 - ∞/D” value [3, 18] was 823 (776) h*ng/mL/mg, the Cmax/D [3, 18] was 36.0 (21.2) ng/mL/mg and the tlag [3, 18] was 0.642 (0.393) h. For the same compound, the “AUC0 - ∞/D” value [3, 19] was 802 (342) h*ng/mL/mg, the Cmax/D [3, 19] was 36.6 (13.6) ng/mL/mg and the tlag [3, 19] was 0.342 (0.143) h. The “AUC0 - ∞/D” value [3, 20] was 1150 (285) h*ng/mL/mg, the Cmax/D [3, 20] was 53.2 (12.8) ng/mL/mg and the tlag [3, 20] was 0.414 (0.350) h. The “AUC0 - ∞/D” value [3, 21] was 879 (370) h*ng/mL/mg, the Cmax/D [3, 21] was 42.3 (10.1) ng/mL/mg and the tlag [3, 21] was 0.306 (0.284) h. The “AUC0 - ∞/D” value [3, 22] was 982 (359) h*ng/mL/mg, the Cmax/D [3, 22] was 35.0 (13.7) ng/mL/mg and the tlag [3, 22] was 0.0944 (0.146) h. The “AUC0 - ∞/D” value [3, 23] was 858 (417) h*ng/mL/mg, the Cmax/D [3, 23] was 28.9 (6.55) ng/mL/mg and the tlag [3, 23] was 0.547 (0.507) h. For the same compound, the “AUC0 - ∞/D” value [3, 24] was 749 (385) h*ng/mL/mg, the Cmax/D [3, 24] was 22.5 (9.71) ng/mL/mg and the tlag [3, 24] was 0.186 (0.250) h. For the same compound, the half-life ([3]; human, plasma, oral) was 1440 to 2340 min, the “histopathology in the pancreas” value [4] was “no histopathology in the pancreas was observed” and the AUC(0-inf) ([5]; 50 mg) was 24500 ng·h/mL. The AUC(0-inf) ([5]; 100 mg) was 68700 ng·h/mL, the “increase of mean score for MDS-UPDRS Part III” value ([6]; 50 mg once daily 7 days) was 6.2 (±9.50) points and the “increase of mean score for MDS-UPDRS Part III” value ([6]; 100 mg once daily 7 days) was 7.4 (±14.1) points. It also gave a concentration at 6 days ([7]; 25 mg) of 4.51 ng/mL, a concentration at 6 days ([7]; 50 mg) of 3.07 ng/mL and a concentration at 6 days ([7]; 100 mg) of 8.42 ng/mL. The “detection in cerebrospinal fluid” value ([7]; pre-dose on the last dosing day of a 7-day dosing study, older healthy adults and PD participants) was “detected”, the “Severity of treatment-related adverse event: Dermatitis” value ([8]; 50 mg, 7-day, 1x/day, PD patients) was “Mild” and the “Severity of treatment-related adverse event: Palpitations” value ([8]; 75 mg, Single Dose, healthy subjects) was “Mild”. For the same compound, the “Severity of treatment-related adverse event: Constipation” value ([8]; 100 mg, 7-day, 1x/day, PD patients) was “Mild”, the “Severity of treatment-related adverse event: Elevated Lipase” value ([8]; 200 mg, 7-day, 1x/day, healthy subjects) was “Mild” and the “Severity of treatment-related adverse event: Diarrhea” value ([8]; 325 mg, Single Dose, healthy subjects) was “Mild”. For the same compound, the “deaths and serious adverse events” value ([8]; 94 healthy subjects and 14 participants with PD) was “no deaths, no serious adverse events”, the “adverse events deemed possibly or probably related to the active drug” value ([8]; among all 36 recorded adverse events, SAD, MAD and MAD-PD, all mild) was 11 and the QTcF prolongation ([8]; any dose or dose duration) was “No participants displayed evidence of QTcF prolongation”. For the same compound, the “orthostatic hypotension, heart rate, heart rhythm, blood pressure” value ([8]; participants with PD) was “did not exacerbate pre-existing orthostatic hypotension” and the “effect in models of inherited or sporadic Parkinson’s-like disease” value [9] was “therapeutically effective”.

For `Cc1cn(-c2cc(NC(=O)c3ccc(C)c(Nc4nccc(-c5cccnc5)n4)c3)cc(C(F)(F)F)c2)cn1` [nilotinib], the “improvement of PD features” value [10] is listed as “failure”.
